Test results: patent US20190151266A1, “PHARMACEUTICAL COMPOSITION FOR TREATING OR PREVENTING BURN INJURIES” (priority 2016, published 2019)

Key:
TRPV ion channels = assay: TRPV ion channel activity: 2-APB-induced intracellular calcium change in nociceptive sensory cells (Fluo-4-AM); assay type: cell-based, white rats
Protocol: After fl 1 nociceptive sensory cell lines in white rats incubated with the compound of Formula 1 for 24 hours were pretreated, TRPV ion channel activities were measured. The fl 1 cell lines were treated with 2-APB (2-aminoethoxydiphenyl borate) as a pre-activator for TRPV ion channels, and intracellular calcium changes, which are triggered in response to the 2-APB treatment, were evaluated using a Fluo-4-AM fluorescent dye on a real time basis.

f11 neuron cell lines = assay: Inhibitory efficacy of fibroblast cell proliferation; assay type: cell-based; conditions: f11 neuron cell lines treated for 72 hours; compared to control groups; FIG. 10
Protocol: After f11 neuron cell lines were treated with the compound of Formula 1 for 72 hours, the extents of cell differentiation were first compared/evaluated (see FIG. 10). […] Since fibroblast cell proliferation accompanies excessive collagen synthesis to make up for the dermis damaged by skin injury, scars can be left even after the damage recovery. Therefore, scar prevent or treating efficacy can be exerted by inhibiting the fibroblast proliferation.

| Structure (SMILES) | increase in the intracellular calcium level induced by 2-APB (TRPV ion channels; fl 1 cell lines pre-treated with the compound for 24 hours, FIG. 9) | fibroblast cell proliferation and differentiation inhibitory efficacy (f11 neuron cell lines) | intracellular calcium level after treatment with TRPV pre-activator (TRPV ion channels; fl 1 cell lines, transient within 20 seconds, reverted to base level in about 5 minutes) |
| --- | --- | --- | --- |
| CC(C)c1ccc2c(c1)C=C[C@H]1[C@](C)(C(=O)O)CCC[C@]21C [Formula 1, abieta-6,8,11,13-tetraaen-18-oic acid] | strongly inhibited | improved fibroblast cell proliferation and differentiation inhibitory efficacy | – |
| NCCOB(c1ccccc1)c1ccccc1 [Formula 2-APB, 2-aminoethoxydiphenyl borate, reference compound] | – | – | sharp increase in the intracellular calcium level |
